Experimental data taken from ChEMBL document CHEMBL3091428, “Synthesis and initial biological evaluation of substituted 1-phenylamino-2-thio-4,5-dimethyl-1H-imidazole derivatives” (Bioorg Med Chem Lett, 2013).
Values after ≈ are worked out from the molar mass of the structure shown.

How the values were obtained:
TK-10 = experiment: Cytotoxicity against human TK10 cells assessed as cell growth after 48 hrs by SRB assay relative to control; assay type: functional
RXF 393 = experiment: Cytotoxicity against human RXF393 cells assessed as cell growth after 48 hrs by SRB assay relative to control; assay type: functional
CAKI-1 = experiment: Cytotoxicity against human Caki1 cells assessed as cell growth after 48 hrs by SRB assay relative to control; assay type: functional
ACHN = experiment: Cytotoxicity against human ACHN cells assessed as cell growth after 48 hrs by SRB assay relative to control; assay type: functional
A498 = experiment: Cytotoxicity against human A498 cells assessed as cell growth after 48 hrs by SRB assay relative to control; assay type: functional
SK-OV-3 = experiment: Cytotoxicity against human SKOV3 cells assessed as cell growth after 48 hrs by SRB assay relative to control; assay type: functional
[1] = Cytotoxicity against human OVCAR5 cells assessed as cell growth after 48 hrs by SRB assay relative to control; assay type: functional, OVCAR-5
OVCAR-8 = experiment: Cytotoxicity against human OVCAR8 cells assessed as cell growth after 48 hrs by SRB assay relative to control; assay type: functional
[2] = Cytotoxicity against human OVCAR4 cells assessed as cell growth after 48 hrs by SRB assay relative to control; assay type: functional, OVCAR-4
OVCAR-3 = experiment: Cytotoxicity against human OVCAR3 cells assessed as cell growth after 48 hrs by SRB assay relative to control; assay type: functional
IGROV-1 = experiment: Cytotoxicity against human IGROV1 cells assessed as cell growth after 48 hrs by SRB assay relative to control; assay type: functional
UACC-62 = experiment: Cytotoxicity against human UACC62 cells assessed as cell growth after 48 hrs by SRB assay relative to control; assay type: functional
SK-MEL-5 = experiment: Cytotoxicity against human SK-MEL-5 cells assessed as cell growth after 48 hrs by SRB assay relative to control; assay type: functional
[3] = Cytotoxicity against human UACC257 cells assessed as cell growth after 48 hrs by SRB assay relative to control; assay type: functional, UACC-257
SK-MEL-28 = experiment: Cytotoxicity against human SK-MEL-28 cells assessed as cell growth after 48 hrs by SRB assay relative to control; assay type: functional
SK-MEL-2 = experiment: Cytotoxicity against human SK-MEL-2 cells assessed as cell growth after 48 hrs by SRB assay relative to control; assay type: functional
M14 = experiment: Cytotoxicity against human M14 cells assessed as cell growth after 48 hrs by SRB assay relative to control; assay type: functional
Malme-3M = experiment: Cytotoxicity against human MALME-3M cells assessed as cell growth after 48 hrs by SRB assay relative to control; assay type: functional
LOX IMVI = experiment: Cytotoxicity against human LOXIMVI cells assessed as cell growth after 48 hrs by SRB assay relative to control; assay type: functional
SNB-75 = experiment: Cytotoxicity against human SNB75 cells assessed as cell growth after 48 hrs by SRB assay relative to control; assay type: functional
U-251 = experiment: Cytotoxicity against human U251 cells assessed as cell growth after 48 hrs by SRB assay relative to control; assay type: functional
SNB-19 = experiment: Cytotoxicity against human SNB19 cells assessed as cell growth after 48 hrs by SRB assay relative to control; assay type: functional
SF-539 = experiment: Cytotoxicity against human SF539 cells assessed as cell growth after 48 hrs by SRB assay relative to control; assay type: functional
SW-620 = experiment: Cytotoxicity against human SW620 cells assessed as cell growth after 48 hrs by SRB assay relative to control; assay type: functional
KM12 = experiment: Cytotoxicity against human KM12 cells assessed as cell growth after 48 hrs by SRB assay relative to control; assay type: functional
HCT-116 = experiment: Cytotoxicity against human HCT116 cells assessed as cell growth after 48 hrs by SRB assay relative to control; assay type: functional
HCT-15 = experiment: Cytotoxicity against human HCT15 cells assessed as cell growth after 48 hrs by SRB assay relative to control; assay type: functional
HCC 2998 = experiment: Cytotoxicity against human HCC2998 cells assessed as cell growth after 48 hrs by SRB assay relative to control; assay type: functional
NCI-H522 = experiment: Cytotoxicity against human NCI-H522 cells assessed as cell growth after 48 hrs by SRB assay relative to control; assay type: functional
NCI-H460 = experiment: Cytotoxicity against human NCI-H460 cells assessed as cell growth after 48 hrs by SRB assay relative to control; assay type: functional
NCI-H322M = experiment: Cytotoxicity against human NCI-H322M cells assessed as cell growth after 48 hrs by SRB assay relative to control; assay type: functional
NCI-H226 = experiment: Cytotoxicity against human NCI-H226 cells assessed as cell growth after 48 hrs by SRB assay relative to control; assay type: functional
HOP-92 = experiment: Cytotoxicity against human HOP92 cells assessed as cell growth after 48 hrs by SRB assay relative to control; assay type: functional
HOP-62 = experiment: Cytotoxicity against human HOP62 cells assessed as cell growth after 48 hrs by SRB assay relative to control; assay type: functional
A549 = experiment: Cytotoxicity against human A549 cells assessed as cell growth after 48 hrs by SRB assay relative to control; assay type: functional
SR = experiment: Cytotoxicity against human SR cells assessed as cell growth after 48 hrs by SRB assay relative to control; assay type: functional
RPMI-8226 = experiment: Cytotoxicity against human RPMI8226 cells assessed as cell growth after 48 hrs by SRB assay relative to control; assay type: functional
HL-60(TB) = experiment: Cytotoxicity against human HL-60(TB) cells assessed as cell growth after 48 hrs by SRB assay relative to control; assay type: functional
CCRF-CEM = experiment: Cytotoxicity against human CCRF-CEM cells assessed as cell growth after 48 hrs by SRB assay relative to control; assay type: functional
Staphylococcus aureus = experiment: Antimicrobial activity against Staphylococcus aureus ATCC 25923 after 24 hrs by broth microdilution method; assay type: functional; details: ATCC 25923, 24 h
Enterococcus faecalis = experiment: Antimicrobial activity against Enterococcus faecalis ATCC 51299 after 24 hrs by broth microdilution method; assay type: functional; details: ATCC 51299, 24 h
Pseudomonas aeruginosa = experiment: Antimicrobial activity against Pseudomonas aeruginosa ATCC 27853 after 24 hrs by broth microdilution method; assay type: functional; details: ATCC 27853, 24 h
Klebsiella pneumoniae = experiment: Antimicrobial activity against Klebsiella pneumoniae ATCC 13883 after 24 hrs by broth microdilution method; assay type: functional; details: ATCC 13883, 24 h
Escherichia coli [4] = experiment: Antimicrobial activity against Escherichia coli ATCC 25922 after 24 hrs by broth microdilution method; assay type: functional; details: ATCC 25922, 24 h
Escherichia coli [5] = experiment: Antimicrobial activity against Escherichia coli ATCC 35218 after 24 hrs by broth microdilution method; assay type: functional; details: ATCC 35218, 24 h
[6] = Cytotoxicity against human Hs578T cells assessed as cell growth after 48 hrs by SRB assay relative to control; assay type: functional, Hs-578T
DU-145 = experiment: Cytotoxicity against human DU145 cells assessed as cell growth after 48 hrs by SRB assay relative to control; assay type: functional
PC-3 = experiment: Cytotoxicity against human PC3 cells assessed as cell growth after 48 hrs by SRB assay relative to control; assay type: functional
[7] = Cytotoxicity against human UO31 cells assessed as cell growth after 48 hrs by SRB assay relative to control; assay type: functional, UO-31

## Cc1nc(SCC(=O)c2ccc(Cl)cc2)n(Nc2ccccc2)c1C
TK-10
  Activity: 117.2%
RXF 393
  Activity: 96.88%
CAKI-1
  Activity: 78.89%
ACHN
  Activity: 102.7%
A498
  Activity: 82.14%
SK-OV-3
  Activity: 102.4%
[1]
  Activity: 103.9%
OVCAR-8
  Activity: 96.67%
[2]
  Activity: 93.89%
OVCAR-3
  Activity: 108.6%
IGROV-1
  Activity: 102.1%
UACC-62
  Activity: 90.32%
SK-MEL-5
  Activity: 96.98%
[3]
  Activity: 97.88%
SK-MEL-28
  Activity: 108.7%
SK-MEL-2
  Activity: 91.02%
M14
  Activity: 107.4%
Malme-3M
  Activity: 97.11%
LOX IMVI
  Activity: 101.4%
SNB-75
  Activity: 94.11%
U-251
  Activity: 90.68%
SNB-19
  Activity: 89%
SF-539
  Activity: 103.9%
SW-620
  Activity: 108.9%
KM12
  Activity: 105%
HCT-116
  Activity: 90.7%
HCT-15
  Activity: 92.65%
HCC 2998
  Activity: 106.9%
NCI-H522
  Activity: 79.92%
NCI-H460
  Activity: 98.85%
NCI-H322M
  Activity: 88.63%
NCI-H226
  Activity: 95.15%
HOP-92
  Activity: 76.51%
HOP-62
  Activity: 101.2%
A549
  Activity: 86.67%
SR
  Activity: 86.04%
RPMI-8226
  Activity: 92.33%
HL-60(TB)
  Activity: 92.02%
CCRF-CEM
  Activity: 81.64%
Staphylococcus aureus
  MIC: 800 µg/mL (≈ 2150 µM)
Enterococcus faecalis
  MIC: 400 µg/mL (≈ 1080 µM)
Pseudomonas aeruginosa
  MIC: 400 µg/mL (≈ 1080 µM)
Klebsiella pneumoniae
  MIC: 800 µg/mL (≈ 2150 µM)
Escherichia coli [4]
  MIC: 800 µg/mL (≈ 2150 µM)
Escherichia coli [5]
  MIC: 400 µg/mL (≈ 1080 µM)
[6]
  Activity: 96.61%
DU-145
  Activity: 115.8%
PC-3
  Activity: 91.86%
[7]
  Activity: 66.15%

## COc1ccc(C(=O)CSc2nc(C)c(C)n2Nc2ccccc2)cc1
TK-10
  Activity: 109.3%
RXF 393
  Activity: 85.48%
CAKI-1
  Activity: 81.41%
ACHN
  Activity: 99.05%
A498
  Activity: 90.87%
SK-OV-3
  Activity: 93.26%
[1]
  Activity: 99.29%
OVCAR-8
  Activity: 100.7%
[2]
  Activity: 92.83%
OVCAR-3
  Activity: 101.3%
IGROV-1
  Activity: 103.3%
UACC-62
  Activity: 90.38%
SK-MEL-5
  Activity: 100.7%
[3]
  Activity: 99.75%
SK-MEL-28
  Activity: 113.1%
SK-MEL-2
  Activity: 94.21%
M14
  Activity: 91.19%
Malme-3M
  Activity: 101.4%
LOX IMVI
  Activity: 104.8%
SNB-75
  Activity: 93.05%
U-251
  Activity: 93.77%
SNB-19
  Activity: 96.63%
SF-539
  Activity: 100.8%
SW-620
  Activity: 105.7%
KM12
  Activity: 97.97%
HCT-116
  Activity: 96.71%
HCT-15
  Activity: 88.63%
HCC 2998
  Activity: 93.49%
NCI-H522
  Activity: 77.18%
NCI-H460
  Activity: 96.54%
NCI-H322M
  Activity: 82.37%
NCI-H226
  Activity: 92.08%
HOP-92
  Activity: 82.74%
HOP-62
  Activity: 100.7%
A549
  Activity: 97.35%
SR
  Activity: 83.4%
RPMI-8226
  Activity: 94.68%
HL-60(TB)
  Activity: 87.13%
CCRF-CEM
  Activity: 89.68%
Staphylococcus aureus
  MIC: 800 µg/mL (≈ 2180 µM)
Enterococcus faecalis
  MIC: 800 µg/mL (≈ 2180 µM)
Pseudomonas aeruginosa
  MIC: 200 µg/mL (≈ 544 µM)
Klebsiella pneumoniae
  MIC: 800 µg/mL (≈ 2180 µM)
Escherichia coli [4]
  MIC: 400 µg/mL (≈ 1090 µM)
Escherichia coli [5]
  MIC: 800 µg/mL (≈ 2180 µM)
[6]
  Activity: 107.2%
DU-145
  Activity: 111.6%
PC-3
  Activity: 89.35%
[7]
  Activity: 69.91%

## Cc1nc(SCC(=O)c2ccccc2)n(Nc2ccccc2)c1C
TK-10
  Activity: 127.6%
RXF 393
  Activity: 103.1%
CAKI-1
  Activity: 88.11%
ACHN
  Activity: 106.6%
A498
  Activity: 91.12%
SK-OV-3
  Activity: 97.79%
[1]
  Activity: 109.7%
OVCAR-8
  Activity: 99.29%
[2]
  Activity: 105.2%
OVCAR-3
  Activity: 109.4%
IGROV-1
  Activity: 98.59%
UACC-62
  Activity: 102.6%
SK-MEL-5
  Activity: 99.8%
[3]
  Activity: 97.59%
SK-MEL-28
  Activity: 110.7%
SK-MEL-2
  Activity: 97.16%
M14
  Activity: 101.1%
Malme-3M
  Activity: 103.5%
LOX IMVI
  Activity: 102.1%
SNB-75
  Activity: 108.2%
U-251
  Activity: 97.26%
SNB-19
  Activity: 98.31%
SF-539
  Activity: 104.4%
SW-620
  Activity: 109.1%
KM12
  Activity: 104.6%
HCT-116
  Activity: 86.93%
HCT-15
  Activity: 99.3%
HCC 2998
  Activity: 110.5%
NCI-H522
  Activity: 81.35%
NCI-H460
  Activity: 104.4%
NCI-H322M
  Activity: 90.31%
NCI-H226
  Activity: 99.07%
HOP-92
  Activity: 91.79%
HOP-62
  Activity: 97.72%
A549
  Activity: 99.16%
SR
  Activity: 82.35%
RPMI-8226
  Activity: 102.2%
HL-60(TB)
  Activity: 91%
CCRF-CEM
  Activity: 90.27%
Staphylococcus aureus
  MIC: 800 µg/mL (≈ 2370 µM)
Enterococcus faecalis
  MIC: 800 µg/mL (≈ 2370 µM)
Pseudomonas aeruginosa
  MIC: 200 µg/mL (≈ 593 µM)
Klebsiella pneumoniae
  MIC: 800 µg/mL (≈ 2370 µM)
Escherichia coli [4]
  MIC: 800 µg/mL (≈ 2370 µM)
Escherichia coli [5]
  MIC: 800 µg/mL (≈ 2370 µM)
[6]
  Activity: 108%
DU-145
  Activity: 109.3%
PC-3
  Activity: 102%
[7]
  Activity: 68.6%
